Data as given in US20250262331A1, “COMPOSITION AND METHODS FOR IMPROVING SIGNS AND SYMPTOMS OF OCULAR DISORDERS” (Azura Ophthalmics Ltd., priority 2022, published 2025).

Test system: sebaceous cells
Test: Preclinical sebum production in sebaceous cells
Format: cell-based
Conditions: preclinical data; lower effect observed at higher concentrations

S=[Se]=S [selenium disulfide]
effect on sebum production in sebaceous cells: non-linear dose response
